{
  "source": "patent US20140023696A1",
  "about": "“TREATMENT FOR IDIOPATHIC PULMONARY FIBROSIS” (priority 2012, published 2014)",
  "origin": "cited, not measured here",
  "system": "patients with IPF",
  "details": "added to prednisone and azathioprine; 12 months of follow up",
  "data": [
    {"smiles": "CC(=O)N[C@@H](CS)C(=O)O", "note": "[N-acetylcysteine]", "values": [
      {"measurement": "effect on FVC and DLCO", "value": "slight benefit"}
    ]}
  ]
}
